Experimental data published in the NIST ThermoML archive (doi:10.1021/je0500577).

Tests used:
[1] = for surface tension liquid-gas: Drop volume; for mass density: 101.33 kPa, Liquid
[2] = xn = mol fraction of the nth substance listed

CC1CCC(C)O1 (stereo not drawn) [2,5-dimethyltetrahydrofuran]
[1]
Conditions | mass density [kg/m3] | surface tension liquid-gas [mN/m]
298.15 K | 825.25 | 22.93
313.15 K | – | 21.5

CC1CCC(C)O1 (stereo not drawn) [2,5-dimethyltetrahydrofuran] + BrC1CCCCC1
surface tension liquid-gas [mN/m], [2]
Conditions | 298.15 K | 313.15 K
x2 = 0 | 22.93 | 21.5
x2 = 0.0692 | 23.3 | 21.71
x2 = 0.0908 | 23.42 | 21.83
x2 = 0.1916 | 24.03 | 22.52
x2 = 0.2942 | 24.54 | 23.16
x2 = 0.3981 | 24.9 | 23.73
x2 = 0.4712 | 25.17 | 24.06
x2 = 0.5994 | 25.96 | 24.84
x2 = 0.6382 | 26.39 | 25.15
x2 = 0.701 | – | 25.74
x2 = 0.8032 | 29.16 | –
x2 = 0.8035 | – | 27.31
x2 = 0.8552 | 30.35 | –
x2 = 0.8558 | – | 28.4
x2 = 0.8996 | 31.47 | –
x2 = 0.9378 | 32.34 | 30.81

CC1CCC(C)O1 (stereo not drawn) [2,5-dimethyltetrahydrofuran] + ClC1CCCCC1
surface tension liquid-gas [mN/m], [2], Drop volume
Conditions | 298.15 K | 313.15 K
x2 = 0 | 22.93 | 21.5
x2 = 0.054 | – | 21.87
x2 = 0.0582 | 23.29 | –
x2 = 0.0998 | – | 22.15
x2 = 0.1048 | 23.51 | –
x2 = 0.1988 | 24 | –
x2 = 0.202 | – | 22.76
x2 = 0.3031 | 24.46 | –
x2 = 0.3037 | – | 23.3
x2 = 0.4025 | 24.96 | –
x2 = 0.4049 | – | 23.78
x2 = 0.5047 | 25.45 | –
x2 = 0.509 | – | 24.29
x2 = 0.6055 | – | 24.87
x2 = 0.6071 | 25.99 | –
x2 = 0.7039 | – | 25.58
x2 = 0.7088 | 26.75 | –
x2 = 0.8075 | – | 26.61
x2 = 0.8097 | 27.83 | –
x2 = 0.9009 | 29.1 | –
x2 = 0.9065 | – | 27.94
x2 = 0.9479 | – | 28.54
x2 = 0.9482 | 29.98 | –

CC1CCCO1 (stereo not drawn) [2-methyltetrahydrofuran]
[1]
Conditions | mass density [kg/m3] | surface tension liquid-gas [mN/m]
298.15 K | 849.4 | 24.56
313.15 K | – | 23.02

CC1CCCO1 (stereo not drawn) [2-methyltetrahydrofuran] + BrC1CCCCC1
[2], Drop volume, x2 = 0
Conditions | surface tension liquid-gas [mN/m]
298.15 K | 24.56
313.15 K | 23.02

CC1CCCO1 (stereo not drawn) [2-methyltetrahydrofuran] + ClC1CCCCC1
[2], Drop volume, x2 = 0
Conditions | surface tension liquid-gas [mN/m]
298.15 K | 24.56
313.15 K | 23.02

BrC1CCCCC1 [bromocyclohexane]
[1]
Conditions | mass density [kg/m3] | surface tension liquid-gas [mN/m]
298.15 K | 1328.41 | 33.63
313.15 K | – | 32.98

BrC1CCCCC1 [bromocyclohexane] + C1CCOC1
surface tension liquid-gas [mN/m], [2], Drop volume
Conditions | 298.15 K | 313.15 K
x1 = 0.0528 | 27.39 | 25.66
x1 = 0.0909 | 27.62 | 25.94
x1 = 0.1919 | 28.31 | 26.67
x1 = 0.2954 | 29.06 | 27.39
x1 = 0.3997 | 29.82 | 28.12
x1 = 0.5057 | 30.56 | 28.88
x1 = 0.611 | 31.24 | 29.65
x1 = 0.7127 | 31.89 | 30.42
x1 = 0.8064 | – | 31.18
x1 = 0.8232 | 32.56 | –
x1 = 0.8937 | 32.98 | –
x1 = 0.8994 | – | 32
x1 = 0.9467 | 33.31 | 32.44
x1 = 1 | 33.63 | 32.98

BrC1CCCCC1 [bromocyclohexane] + C1CCOCC1
surface tension liquid-gas [mN/m], [2], Drop volume
Conditions | 298.15 K | 313.15 K
x1 = 0.0539 | 27.62 | 25.95
x1 = 0.098 | 27.89 | 26.32
x1 = 0.1908 | 28.45 | 27.01
x1 = 0.296 | 29.11 | 27.7
x1 = 0.3969 | 29.75 | 28.35
x1 = 0.4993 | 30.43 | 28.98
x1 = 0.6178 | 31.23 | 29.74
x1 = 0.712 | 31.86 | 30.43
x1 = 0.8067 | 32.49 | 31.23
x1 = 0.8816 | 32.95 | 31.88
x1 = 0.9568 | 33.39 | 32.57
x1 = 1 | 33.63 | 32.98

BrC1CCCCC1 [bromocyclohexane] + CC1CCC(C)O1
[2], x1 = 1
Conditions | surface tension liquid-gas [mN/m]
298.15 K | 33.63
313.15 K | 32.98
